Experimental findings from patent US20110244049A1, “COMPOSITIONS COMPRISING 4-(2-(5-BROMO-4-(1-CYCLOPROPYLNAPHTHALEN-4-YL)-4H-1,2,4-TRIAZOL-3-YLTHIO)ACETAMIDO)-3-CHLOROBENZOIC ACID AND PHARMACEUTICALLY ACCEPTABLE SALTS THEREOF, AND METHODS FOR PREPARING AND USING SAME” (ARDEA BIOSCIENCES INC., priority 2008, published 2011) are described below.

This assay concerns serum uric acid. Put plainly: Serum uric acid levels on day 9 of the study (Example 6). The format is in vivo, human. How it is done: Human clinical studies using the compositions described in examples 2A, 3A, 4A, 5A were conducted as described: A multi-center, double-blind, placebo-controlled study in 48 treatment-naïve HIV-1-infected subjects, randomized 3:1 (treatment:placebo). Patients were male, 18-65 years with chronic HIV infection, but no history of AIDS-defining illness. Patients were antiretroviral treatment naïve or <14 days prior therapy and had no pre-existing RTI or PI drug resistance and no co-infection with acute HAV, chronic HBV, active HCV. Patient CD4+ cell count was ≧50 cells/mm^3 for 2 cohorts, then ≧200 cells/mm^3 or ≧350 cells/mm^3 depending on site.
The compositions were administered over a 7-day treatment period plus one morning dose for PK purposes on day 8. (It should be noted that in some instances multiple doses of the same composition were administered, in order to achieve the required total dose of compound 1; i.e.in order to achieve a dose of 400 mg compound 1, a patient may have taken four 100 mg compositions or two 200 mg compositions, depending on the dosage form.) Four sequential dose cohorts were administered as follows:
Serum uric acid levels were recorded on day 9 of the study, and are shown in the table below and graphically in FIG. 8.

With `O=C(CSc1nnc(Br)n1-c1ccc(C2CC2)c2ccccc12)Nc1ccc(C(=O)O)cc1Cl` [Compound 1, 4-(2-(5-bromo-4-(1-cyclopropylnaphthalen-4-yl)-4H-1,2,4-triazol-3-ylthio)acetamido)-3-chlorobenzoic acid], the “Mean serum UA reduction” value (400 mg BID) was −30%, the “Mean serum UA reduction” value (600 mg QD) is −21%, the “Mean serum UA reduction” value (800 mg QD) is given as −21% and the “Mean serum UA reduction” value (1000 mg QD) was −28%.
